Laboratory results: patent publication US20230372382A1, “USE OF ADENOSINE DIPHOSPHATE RIBOSE FOR ADJUVANT THERAPY WITH RADIATION AND/OR ANTI-CANCER TREATMENT” (PearlsInMires Co., Ltd., priority 2021, published 2023)

Experiments:
[1] = system: Brain cancer (U-87MG) cells; assay: Xenograft model, combination with anti-cancer drug, tumor volume; type: in vivo, BALB/c nude mice; settings: U-87MG xenograft
Procedure: Brain (U-87MG), lung (H1975), pancreatic (AsPC-1), or liver (Hep G2) cells (1×10^7 cells) were inoculated into 5-week-old BALB/c nude mice on the back flank, respectively. Then, when tumors were grown to a volume of approximately 150 mm^3, the mice were divided into the control group (control), an anti-cancer drug alone treatment group, and a combination treatment group. […] The tumor size was measured every 6 days using a digital caliper, and the results of changes in tumor volume were compared by the group.
Brain cancer (U-87MG) cells (1×10^7) were inoculated into 5-week-old BALB/c nude mice on the back flank, and the mice were divided into three groups: the control group (Control), single intraperitoneal administration of 25 mg/kg of Avastin (ingredient name: bevacizumab), and combination administration of Avastin+10 mg/kg of ADP-ribose. When the tumors were grown to a volume of approximately 150 mm^3, Avastin was administered intraperitoneally twice a week, and ADP-ribose at 10 mg/kg was injected subcutaneously 3 times a week. The tumor size was measured using a digital caliper, and the results of changes in tumor volume were compared by the group.

H1975 cells = assay: Cancer cell death verification (MTT cell viability); type: cell-based
Procedure: 3×10^3 Brain cancer (U-87MG), lung cancer (H1975), pancreatic cancer (Aspc-1), liver cancer (Hep G2), breast cancer (MDA-MB-231), colon cancer (HCT116), kidney cancer (Caki-1), gastric cancer (SNU-1) and ovarian cancer (OVCAR-3) cells were cultured in a 96-well plate under conditions of 37° C. and 5% CO2 for 24 hours, and then each cancer cell was treated with ADP-ribose at each concentration. After culturing for 24 hours under conditions of 37° C. and 5% CO2 again, 10 μl of 3-(4,5-dimethylthiazol-2-yl)-2,5-diphenyltetrazolium bromide reagent was added to each well and reacted for 1 hour. After the reaction was completed, the reagent was removed, 200 μl of dimethyl sulfoxide was added to each well, and the absorbance was measured to determine the concentration of half-lethality and maximum lethality compared to untreated cells.
3×10^3 H1975 cells were cultured in a 96-well plate for 24 hours under conditions of 37° C. and 5% CO2, treated with ADP-ribose at concentrations of 0.125, 0.25, 0.5, 1, 2, 4, 8, 16, and 32 μM, respectively, and cultured again for 24 hours under conditions of 37° C. and 5% CO2. Then, 10 μl of 3-(4,5-dimethylthiazol-2-yl)-2,5-diphenyltetrazolium bromide reagent was added to each well and reacted for 1 hour. After the reaction was completed, the reagent was removed, 200 μl of dimethyl sulfoxide was added to each well, and the absorbance was measured to confirm cell viability.

[2] = system: Breast cancer (MDA-MB-231) cells; assay: Xenograft model, combination with radiation, tumor volume; type: in vivo, BALB/c nude mice; settings: MDA-MB-231 xenograft
Procedure: Brain cancer (U-87MG), pancreatic cancer (AsPC-1), breast cancer (MDA-MB-231), or kidney cancer (Caki-1) cells (1×10^7 cells) were inoculated into 5-week-old BALB/c nude mice on the back flank, respectively. Then, when tumors were grown to a volume of approximately 150 mm^3, the mice were divided into three groups: the control group (Control), 2 Gy dose of radiation alone, and a combination administration of 2 Gy dose of radiation+10 mg/kg of ADP-ribose (subcutaneous administration, 3 times a week). The irradiation was performed with an X-Rad 320 irradiator (Precision X-ray, North Branford, CT, USA), wherein the mice were placed by maintaining an appropriate distance from the radiation source for irradiation with a predetermined radiation dose. A lead shield was used to protect the body parts or organs from exposure to radiation, other than the cancerous part of the mouse. The irradiation was performed with a total of 2 Gy of radiation fractionated into two doses of 1 Gy each (for 2 days) at a dose rate of 300 kVp and 150 cGy/min using an X-ray beam filter composed of 12.5 mA and 2.0 mm Al. The tumor size was measured every 6 days using a digital caliper, and the results of changes in tumor volume were compared by the group.
Breast cancer (MDA-MB-231) cells (1×10^7) were inoculated into 5-week-old BALB/c nude mice on the back flank, and the mice were divided into three groups: the control group (Control), 2 Gy dose of radiation alone, and combination administration of 2 Gy dose radiation+20 mg/kg of ADP-ribose. When the tumors were grown to a volume of approximately 150 mm^3, 2 Gy dose of radiation was irradiated twice at 1 Gy each, and 20 mg/kg of ADP-ribose was injected subcutaneously 3 times a week. The tumor size was measured using a digital caliper, and the results of changes in tumor volume were compared by the group.

[3] = system: Kidney cancer (Caki-1) cells; assay: Xenograft model, intravenous ADP-ribose, tumor volume; type: in vivo, BALB/c nude mice; settings: Caki-1 xenograft, 3 times a week, control about 2074.9
Procedure: Pancreatic cancer (AsPC-1) or kidney cancer (Caki-1) cells (1×10^7 cells) were inoculated into 5-week-old BALB/c nude mice on the back flank, and the mice were grown up to approximately 150 mm^3 of the tumor volume. Then, three concentrations of ADP-ribose were administered subcutaneously, intravenously, and orally 3 times a week. The tumor size was measured every 6 days using a digital caliper, and the changes in tumor volume were compared for each group.
Kidney cancer (Caki-1) cells (1×10^7) were inoculated into 5-week-old BALB/c nude mice on the back flank, and the mice were divided into 4 groups: the control group (Control) and groups injected intravenously with 2, 10, and 20 mg/kg of ADP-ribose. When the tumors were grown to a volume of approximately 150 mm^3, each concentration of ADP-ribose was […] injected 3 times a week. The tumor size was measured using a digital caliper, and the results of changes in tumor volume were compared by the group.

MDA-MB-231 cells = assay: Cancer cell death verification (MTT cell viability); type: cell-based
[4] = system: Brain cancer (U-87MG) cells; assay: Cell death by combination treatment with anti-cancer drug (MTT); type: cell-based; settings: Homo sapiens, ADP-ribose 1.6 μM in combination with bevacizumab, 24 hours, P<0.001
Procedure: 3×10^3 Brain cancer (U-87MG), lung cancer (H1975), pancreatic cancer (Aspc-1), liver cancer (Hep G2), breast cancer (MDA-MB-231), and colon cancer (HCT116) cells were cultured in a 96-well plate for 24 hours under conditions of 37° C. and 5% Ca2, respectively. […] After the treatment was terminated, the cells were cultured for 24 hours under conditions of 37° C. and 5% CO2 again, 10 μl of 3-(4,5-dimethylthiazol-2-yl)-2,5-diphenyltetrazolium bromide reagent was added to each well and reacted for 1 hour. After the reaction was completed, the reagent was removed, 200 μl of dimethyl sulfoxide was added to each well, and the absorbance was measured to compare the degree of cell death.
3×10^3 Brain cancer (U-87MG) cells were cultured in a 96-well plate for 24 hours under conditions of 37° C. and 5% CO2, treated with ADP-ribose at a concentration of 1.6 μM and bevacizumab at 15 mM, individually or in combination, and cultured for 24 hours under conditions of 37° C. and 5% CO2 again. Then, 10 μl of 3-(4,5-dimethylthiazol-2-yl)-2,5-diphenyltetrazolium bromide reagent was added to each well and reacted for 1 hour. After the reaction was completed, the reagent was removed, 200 μl of dimethyl sulfoxide was added to each well, and the absorbance was measured to confirm cell viability.

[5] = ADP-ribose 10 mg/kg s.c. in combination with Avastin 25 mg/kg, P<0.001
[6] = ADP-ribose 20 mg/kg s.c. + 2 Gy radiation, P<0.001

For `Nc1ncnc2c1ncn2[C@@H]1O[C@H](COP(=O)(O)OP(=O)(O)OC[C@H]2O[C@@H](O)C(O)C2O)C(O)C1O` (stereo partly shown) [ADP-ribose, adenosine diphosphate ribose], the “reduction of tumor volume compared to the control group” value [1, 5] was “about 87%”, the “reduction of tumor volume compared to the group treated with Avastin alone” value [1, 5] was “about 79%” and the final tumor volume ([1]; ADP-ribose 10 mg/kg subcutaneous 3 times a week in combination with Avastin 25 mg/kg, control about 2527.1) was “about 334.5 mm^3”. The “maximum lethal dose (concentration at which almost all cells were killed)” value (H1975 cells; H1975, 24 hours, MTT) was 32 µM, the “cancer cell growth under a microscope” value (H1975 cells; H1975, ADP-ribose treated vs control, FIG. 3A) was “inhibited from growing and killed” and the IC50 (H1975 cells; Homo sapiens, NCI-H1975, 24 h, read-out: half-lethal dose (concentration at which about half of the cells were killed)) was ~2 µM. The “reduction of tumor volume compared to the control group” value [2, 6] was “about 72.6%”, the “reduction of tumor volume compared to the group treated with 2 Gy dose of radiation alone” value [2, 6] was “about 56.1%” and the final tumor volume ([2]; ADP-ribose 20 mg/kg subcutaneous 3 times a week + 2 Gy radiation, control about 2336.1, 2 Gy alone about 1459.6) was “about 640.4 mm^3”. The final tumor volume ([3]; 2 mg/kg intravenous) was 706.7 mm^3, the final tumor volume ([3]; 10 mg/kg intravenous) was 331.7 mm^3 and the final tumor volume ([3]; 20 mg/kg intravenous) was 227.2 mm^3. For the same molecule, the IC50 (MDA-MB-231 cells; Homo sapiens, MDA-MB-231, 24 h, read-out: half-lethal dose (concentration at which about half of the cells were killed)) was ~16 µM, the “maximum lethal dose (concentration at which almost all cells were killed)” value (MDA-MB-231 cells; MDA-MB-231, 24 hours, MTT) was 32 µM and the “cancer cell growth under a microscope” value (MDA-MB-231 cells; MDA-MB-231, ADP-ribose treated vs control, FIG. 6A) was “inhibited from growing and killed”. It also gave a viability at 1.6 µM [4] of ~18%.
